The conditions of the data set: not told.

The results in this text go back to patent publication US8568754B2, “Low-emission formaldehyde donor preparations and use thereof” (Air Liquide Sante (International), priority 2002, dated 2013).

SMILES strings stand for the structures.

`CC1CN(CN2COC(C)C2)CO1` (centres unmarked) [No. 1, N,N′-methylenebis(5-methyloxazolidine)]: the “efflux time from a DIN beaker 4 mm” value was 22 s and the “efflux time from the DIN beaker 6 mm” value worked out at 6 s.
